Laboratory results reported in patent US20070117770A1, “Human ribosomal DNA (rDNA) and ribosomal RNA (rRNA) nucleic acids and uses thereof” (Cylene Pharmaceuticals, Inc., priority 2005, published 2007).

Assays:
Experiment in all cases: Protein kinase inhibition assay
HIPK2(h) = HIPK2(h) (Homo sapiens, UniProt Q9H2X6); format: biochemical; settings: read-out: percent residual activity of HIPK2(h)
Description: (§1) Certain compounds were tested for activity in protein kinase inhibition assays. All substrates were dissolved and diluted to working stocks in de-ionized water, apart from histone H1 (10× working stock in 20 mM MOPS pH 7.0), PDKtide (10× working stock in 50 mM Tris pH 7.0) ATF2 (which is typically stored at a 20× working stock in 50 mM Tris pH 7.5, 150 mM NaCl, 0.1 mM EGTA, 0.03% Brij-35, 50% glycerol, 1 mM benzamidine, 0.2 mM PMSF and 0.1% R-mercaptoethanol), KKLNRTLSFAEPG (SEQ ID NO:203) and RRRLSFAEPG (SEQ ID NO:204) (50 mM HEPES pH 7.4) and GGEEEEYFELVKKKK (SEQ ID NO:205) (20 mM MOPS pH 7.0). All kinases were pre-diluted to a 10× working concentration prior to addition into the assay. The composition of the dilution buffer for each kinase is detailed below.
(§2) In a final reaction volume of 25 μl, HIPK2 (h) (5-10 mU) is incubated with 8 mM MOPS pH 7.0, 0.2 mM EDTA, 0.33 mg/ml myelin basic protein, 10 mM MgAcetate and [gamma-33P-ATP] (specific activity approx. 500 cpm/pmol, concentration as required). The reaction is initiated by the addition of the MgATP mix. After incubation for 40 minutes at room temperature, the reaction is stopped by the addition of 5 μl of a 3% phosphoric acid solution. 10 μl of the reaction is then spotted onto a P30 filtermat washed three times for 5 minutes in 75 mM phosphoric acid and once in methanol prior to drying and scintillation counting.

CaMKII(r) = format: biochemical, rat; settings: 2.5 μM
Description: as §1
In a final reaction volume of 25 μl, CaMKII (r) (5-10 mU) is incubated with 40 mM HEPES pH 7.4, 5 mM CaCl2, 30 μg/ml calmodulin, 30 μM KKLNRTLSVA (SEQ ID NO:212), 10 mM MgAcetate and [gamma-33P-ATP] (specific activity approx. 500 cpm/pmol, concentration as required). The reaction is initiated by the addition of the MgATP mix. After incubation for 40 minutes at room temperature, the reaction is stopped by the addition of 5 μl of a 3% phosphoric acid solution. […]

Flt3(D835Y)(h) = Flt3(D835Y)(h) (Homo sapiens, UniProt P36888, D835Y); format: biochemical; settings: read-out: percent residual activity of Flt3(D835Y)(h)
Description: as §1
as §2, with “Flt3 (D835Y)” for “HIPK2”, “50 μM EAIYAAPFAKKK (SEQ ID NO:206),” for “0.33 mg/ml myelin basic protein,”, “filtermat and” for “filtermat”

SAPK2b(h) = SAPK2b(h) (Homo sapiens, UniProt Q15759); format: biochemical; settings: read-out: percent residual activity of SAPK2b(h)
SAPK2b(h), sequence (Q15759 whole entry): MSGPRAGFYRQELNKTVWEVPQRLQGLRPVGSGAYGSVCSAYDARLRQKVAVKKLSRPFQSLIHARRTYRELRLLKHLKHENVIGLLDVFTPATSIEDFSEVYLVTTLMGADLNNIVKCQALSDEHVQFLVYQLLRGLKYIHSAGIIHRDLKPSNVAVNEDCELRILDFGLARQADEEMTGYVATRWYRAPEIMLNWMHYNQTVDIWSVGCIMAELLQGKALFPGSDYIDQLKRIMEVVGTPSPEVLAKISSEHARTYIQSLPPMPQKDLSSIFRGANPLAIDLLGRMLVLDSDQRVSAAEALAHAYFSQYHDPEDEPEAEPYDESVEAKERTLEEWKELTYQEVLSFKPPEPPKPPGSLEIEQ
Description: as §1
as §2, with “SAPK2b” for “HIPK2”, “25” for “8”, “Tris” for “MOPS”, “7.5, 0.02” for “7.0, 0.2”, “EGTA,” for “EDTA,”, “filtermat and” for “filtermat”

ROCK-II(h) = ROCK-II(h) (Homo sapiens, UniProt O75116); format: biochemical; settings: read-out: percent residual activity of ROCK-II(h)
ROCK-II(h), sequence (O75116 whole entry): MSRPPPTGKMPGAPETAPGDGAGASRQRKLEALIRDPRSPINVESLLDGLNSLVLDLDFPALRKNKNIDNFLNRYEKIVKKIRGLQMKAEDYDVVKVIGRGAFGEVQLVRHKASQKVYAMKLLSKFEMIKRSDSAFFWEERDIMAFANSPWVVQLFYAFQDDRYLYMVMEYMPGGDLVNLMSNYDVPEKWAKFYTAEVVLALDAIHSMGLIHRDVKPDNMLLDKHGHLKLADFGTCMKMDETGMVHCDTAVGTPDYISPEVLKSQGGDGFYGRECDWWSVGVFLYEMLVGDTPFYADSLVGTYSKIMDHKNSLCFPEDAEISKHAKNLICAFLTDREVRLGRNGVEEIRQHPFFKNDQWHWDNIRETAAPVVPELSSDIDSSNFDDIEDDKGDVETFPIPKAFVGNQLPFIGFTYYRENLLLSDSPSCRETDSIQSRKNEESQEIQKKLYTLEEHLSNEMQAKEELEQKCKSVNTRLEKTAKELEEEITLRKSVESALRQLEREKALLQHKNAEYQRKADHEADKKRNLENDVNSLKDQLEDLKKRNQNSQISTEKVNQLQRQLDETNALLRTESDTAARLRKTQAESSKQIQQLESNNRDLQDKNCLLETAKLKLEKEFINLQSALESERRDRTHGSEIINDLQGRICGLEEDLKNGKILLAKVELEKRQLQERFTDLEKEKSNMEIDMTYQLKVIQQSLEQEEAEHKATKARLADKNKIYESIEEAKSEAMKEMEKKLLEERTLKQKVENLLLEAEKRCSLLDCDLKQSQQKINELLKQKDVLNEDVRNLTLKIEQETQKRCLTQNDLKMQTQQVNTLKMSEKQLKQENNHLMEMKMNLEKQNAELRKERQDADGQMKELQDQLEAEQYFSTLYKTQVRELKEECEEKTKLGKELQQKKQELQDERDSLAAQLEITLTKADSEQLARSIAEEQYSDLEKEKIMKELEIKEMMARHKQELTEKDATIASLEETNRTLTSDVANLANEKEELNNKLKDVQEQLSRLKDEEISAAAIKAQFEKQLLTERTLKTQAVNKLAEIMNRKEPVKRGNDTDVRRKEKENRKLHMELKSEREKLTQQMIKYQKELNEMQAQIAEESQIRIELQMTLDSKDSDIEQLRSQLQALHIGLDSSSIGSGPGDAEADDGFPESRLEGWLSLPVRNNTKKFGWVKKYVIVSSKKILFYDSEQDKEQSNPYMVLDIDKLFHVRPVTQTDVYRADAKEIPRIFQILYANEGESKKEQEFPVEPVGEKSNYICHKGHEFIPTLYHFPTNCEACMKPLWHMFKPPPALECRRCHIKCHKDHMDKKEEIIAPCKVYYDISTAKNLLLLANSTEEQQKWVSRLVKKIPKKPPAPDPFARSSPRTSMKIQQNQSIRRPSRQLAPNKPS
Description: as §1
as §2, with “ROCK-II” for “HIPK2”, “50” for “8”, “Tris” for “MOPS”, “7.5, […] EGTA, 30 μM […] (SEQ ID NO:222),” for “7.0, 0.2 mM EDTA, 0.33 mg/ml myelin basic protein,”, “[y-33P-ATP]” for “[gamma-33P-ATP]”, “filtermat and” for “filtermat”

CHK1(h) = CHK1(h) (Homo sapiens, UniProt O14757); format: biochemical; settings: read-out: percent residual activity of CHK1(h)
CHK1(h), sequence (O14757 whole entry): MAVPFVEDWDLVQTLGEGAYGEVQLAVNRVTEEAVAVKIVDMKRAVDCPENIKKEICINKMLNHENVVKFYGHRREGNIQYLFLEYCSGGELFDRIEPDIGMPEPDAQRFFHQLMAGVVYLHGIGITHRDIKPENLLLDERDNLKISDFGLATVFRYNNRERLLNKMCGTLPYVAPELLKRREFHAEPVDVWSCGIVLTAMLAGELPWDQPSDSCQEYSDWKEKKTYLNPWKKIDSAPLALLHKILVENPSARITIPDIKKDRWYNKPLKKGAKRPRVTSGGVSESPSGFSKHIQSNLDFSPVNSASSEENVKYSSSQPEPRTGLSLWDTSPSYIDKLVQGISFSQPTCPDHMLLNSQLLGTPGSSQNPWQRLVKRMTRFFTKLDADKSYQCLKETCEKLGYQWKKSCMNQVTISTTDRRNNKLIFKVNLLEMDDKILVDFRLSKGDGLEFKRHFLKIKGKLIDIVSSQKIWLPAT
Description: as §1
as §2, with “CHK1” for “HIPK2”, “200 μM […] (SEQ ID NO:213),” for “0.33 mg/ml myelin basic protein,”, “filtermat and” for “filtermat”

HIPK2(h), sequence (Q9H2X6 whole entry): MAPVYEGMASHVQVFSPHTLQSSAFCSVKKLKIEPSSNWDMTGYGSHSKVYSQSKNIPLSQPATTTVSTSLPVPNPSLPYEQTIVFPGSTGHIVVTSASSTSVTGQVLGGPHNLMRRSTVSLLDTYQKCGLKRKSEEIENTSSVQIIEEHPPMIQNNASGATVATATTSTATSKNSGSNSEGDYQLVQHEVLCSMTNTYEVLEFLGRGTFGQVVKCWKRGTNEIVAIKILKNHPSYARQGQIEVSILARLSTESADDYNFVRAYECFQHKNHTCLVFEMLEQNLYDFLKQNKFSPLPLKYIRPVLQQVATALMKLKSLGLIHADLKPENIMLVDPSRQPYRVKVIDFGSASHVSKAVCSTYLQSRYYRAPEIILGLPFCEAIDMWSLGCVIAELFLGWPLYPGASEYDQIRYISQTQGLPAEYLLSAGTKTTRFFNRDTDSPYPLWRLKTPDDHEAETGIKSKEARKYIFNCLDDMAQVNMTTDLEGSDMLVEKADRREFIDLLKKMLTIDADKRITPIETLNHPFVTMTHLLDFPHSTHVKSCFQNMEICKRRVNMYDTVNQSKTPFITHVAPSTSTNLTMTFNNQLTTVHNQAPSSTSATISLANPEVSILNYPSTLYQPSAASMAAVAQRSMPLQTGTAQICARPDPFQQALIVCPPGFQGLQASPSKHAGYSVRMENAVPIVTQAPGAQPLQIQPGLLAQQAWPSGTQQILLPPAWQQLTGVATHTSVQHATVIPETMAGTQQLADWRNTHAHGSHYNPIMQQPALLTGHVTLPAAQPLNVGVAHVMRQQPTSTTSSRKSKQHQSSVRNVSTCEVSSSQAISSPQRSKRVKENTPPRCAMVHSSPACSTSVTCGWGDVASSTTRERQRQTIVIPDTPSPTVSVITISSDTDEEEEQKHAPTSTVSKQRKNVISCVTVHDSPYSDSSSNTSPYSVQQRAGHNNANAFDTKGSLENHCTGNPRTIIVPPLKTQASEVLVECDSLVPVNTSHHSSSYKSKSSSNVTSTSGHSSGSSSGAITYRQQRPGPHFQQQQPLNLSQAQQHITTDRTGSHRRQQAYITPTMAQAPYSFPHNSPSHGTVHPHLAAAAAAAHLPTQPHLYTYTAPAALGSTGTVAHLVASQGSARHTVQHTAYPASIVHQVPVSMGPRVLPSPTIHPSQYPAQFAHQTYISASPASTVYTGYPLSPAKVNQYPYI

Row | remaining activity at 2.5 µM (HIPK2(h)) [%] | percent residual activity of CaMKII(r) (CaMKII(r)) [%] | remaining activity at 2.5 µM (Flt3(D835Y)(h)) [%] | remaining activity at 2.5 µM (SAPK2b(h)) [%] | remaining activity at 2.5 µM (ROCK-II(h)) [%] | remaining activity at 2.5 µM (CHK1(h)) [%] | SMILES
1 | 106 | 107 | 36 | 70 | 64 | 95 | CN1CCCC1CCNC(=O)c1cn2c3c(c(N4CCC(c5cnccn5)C4)c(F)cc3c1=O)Oc1cc3ccccc3cc1-2 (stereo not drawn) [Compound A-1]
2 | 111 | 113 | 78 | 94 | 115 | 106 | CC(=O)N1CCN(c2ccc3c(=O)c(C(=O)NCCN4CCCC4)c4n(C)c5ccccc5n4c3n2)CC1 [Compound B-1]
